Laboratory results as given in patent publication US20250144187A1, “COMBINATION OF HYDROLASES AND ANTI-MICROORGANISM DRUGS AND USES THEREOF” (CENTRE FOR EYE AND VISION RESEARCH LIMITED, priority 2023, published 2025).
Several values for one entry are separate records, joined by “and”; a condition that tells them apart may be missing. Identical values can stand only once.

How the values were obtained:
MRSA [1] = test: Time-killing curves, auranofin/lysozyme; format: cell-based, Staphylococcus aureus; conditions: for inhibition effect on growth of MRSA at exponential phase: drug alone: 0.34 μg/ml auranofin or 0.5 mg/ml lysozyme
Protocol: 2) Time-killing curves According to standard method [K. R. V. Thappeta et al., (2020) ACS Infect Dis 6: 1228-1237], over-night cultured MRSA was diluted and aliquoted into new sterile tubes at 1:1000 ratio. Then, the bacterial suspension was co-cultured with […] auranofin, 0.5 mg/ml lysozyme or their combination at 37° C. with shaking at 200 rpm. Similar bacterial suspension without any additions served as control group. Then, 20 μl of each culture was extracted at time intervals of […] and 22 hours to determine CFUs by spotting 10 μl of 10-fold dilution on the LB agar plates and incubating at 37° C. for 24 hours prior to enumeration. All assays were performed in triplicate.

MRSA [2] = test: Check board broth micro-dilution assay, tedizolid phosphate with lysozyme; format: cell-based, Staphylococcus aureus
Protocol: (§1) 2) Check board broth micro-dilution assays. According to standard two-fold dilution method [Sun. H et al., Nat. Commun. 11, 5263 (2020) tedizolid phosphate at different concentrations were added into fresh LB medium (or trypticase soy troth medium with 5% defibrinated horse blood) containing different concentrations of human lysozyme in 96-well plate. Then, 20 μl of 1.0×10^7 CFU/ml logarithmic cultures of MRSA or MRSE were added into each well of the plate and co-incubated overnight. Drug-free LB medium in the absence or presence of bacteria served as background control and growth control group, respectively. […] Thus, there would be a series of FICI values. In most of cases, the lowest one among these values was listed to reflect the best achieving degree of combination therapy. In terms of the lowest FICI, FICI≤0.5, 0.5<FICI<1 or FICI≥1, would indicate the combination has synergy, part synergy or non-synergy effects, respectively.

MRSE [3] = test: Check board broth micro-dilution assay, cefdinir with lysozyme; format: cell-based, Staphylococcus epidermidis; conditions: lysozyme alone
Protocol: 2) Check board broth micro-dilution assays. According to standard two-fold dilution method [Sun H et al., Nat Commun 11, 5263 (2020)], cefdinir at different concentration was added into fresh LB medium (or trypticase soy broth medium with 5% defibrinated horse blood) containing different concentration of human lysozyme in 96-wells plate. After well mixed, about 20 μl of 1.0×10^7 CFU/ml logarithmic cultures of MRSA, MRSE, Streptococcus pyogenes (S. py), Streptococcus mutans (S. mu), Enterococcus faecium (E. faecium), Enterococcus faecalis (E. faecalis) and Corynebacterium pseudodiphtheriticum (C. ps) were added into each well of the plate und co-incubated overnight, Wells without any drugs served as growth controls, and wells without bacteria served as background controls. The inhibition ratio was calculated as [1−(ODsample−ODbackground)/(ODcontrol−ODbackground)]×100%. Besides, bacterial growth inhibition was also monitored by serial dilution in LB-agar plate. CFU was counted by performing 10-fold serial dilution in PBS and then spotting 10 μl of dilutions in LB-agar plate. The MIC was determined as the lowest concentration of a drug that could inhibit the […] growth of microorganism by both visual CFU and OD600 using a microtiter plate reader. Fractional inhibitory concentration (FIC) and fractional inhibitory concentration index (FICI) values were determined by standard method. […]

[4] = test system: methicillin-resistant Staphylococcus aureus USA 300 (MRSA, ATCC-BAA1556); test: Check board broth micro-dilution assay, auranofin with human lysozyme; format: cell-based
Protocol: Then, about 5.0×10^5 colony-forming units (CFUs) of methicillin-resistant Staphylococcus aures (MRSA, USA300 strain) in log phase were added into each well for overnight culture. Bacterial growth inhibition was monitored by optical density at 600 nm (OD600) and colony units in serial dilution in LB agar plate. Well without any drug served as growth control, and well without bacteria served as background control. The inhibition ratio was calculated as […]. CFUs were counted by 10-fold serial dilution in phosphate buffered saline (PBS) and 10 μl of dilutions were spotted in LB agar plate. […] Briefly, FICI=MICAB/MICA+MICBA/MICB=FICA+FICB. […] Thus, there would be a series of FICI values. In most of cases, the lowest one among these values was listed to reflect the best achieving degree of combination therapy. In terms of the lowest FICI, FICI≤0.5, 0.5<FICI<1 or FICI≥1, would indicate whether the combination has synergy, part synergy or non-synergy effects, respectively. Besides, to better highlight the inhibition degree of bacterial growth in combination therapy or identify whether combination therapy has synergy effect, results might be shown by heat-maps or line-charts containing different FICI values, although they were performed by using same 2-fold dilution method. All assays were performed in triplicate.

MRSE [5] = test: Check board broth micro-dilution assay, tedizolid phosphate with lysozyme; format: cell-based, Staphylococcus epidermis; conditions: lysozyme alone
Protocol: as §1

MRSA [6] = test: Check board broth micro-dilution assay, cefdinir with lysozyme; format: cell-based, Staphylococcus aureus; conditions: for effect of LTA/WTA synthesis inhibitor on cefdinir/lysozyme combination (FICI): inhibitor added into bacterial suspension
Protocol: 2) Check board broth micro-dilution assays. According to standard two-fold dilution method [Sun H et al., Nat Commun 11, 5263 (2020)], cefdinir at different concentration was added into fresh LB medium (or trypticase soy broth medium with 5% defibrinated horse blood) containing different concentration of human lysozyme in 96-wells plate. After well mixed, about 20 μl of 1.0×10^7 CFU/ml logarithmic cultures of MRSA, MRSE, Streptococcus pyogenes (S. py), Streptococcus mutans (S. mu), Enterococcus faecium (E. faecium), Enterococcus faecalis (E. faecalis) and Corynebacterium pseudodiphtheriticum (C. ps) were added into each well of the plate und co-incubated overnight, Wells without any drugs served as growth controls, and wells without bacteria served as background controls. The inhibition ratio was calculated as [1−(ODsample−ODbackground)/(ODcontrol−ODbackground)]×100%. Besides, bacterial growth inhibition was also monitored by serial dilution in LB-agar plate. CFU was counted by performing 10-fold serial dilution in PBS and then spotting 10 μl of dilutions in LB-agar plate. The MIC was determined as the lowest concentration of a drug that could inhibit the […] growth of microorganism by both visual CFU and OD600 using a microtiter plate reader. Fractional inhibitory concentration (FIC) and fractional inhibitory concentration index (FICI) values were determined by standard method. Briefly, FICI=MICAB/MICA+MICBA/MICB=FICA+FICB. […] Thus, there would be a series of FICI values. In most of Cases the lowest one among these values was listed to reflect the best achieving degree of combination therapy. In terms of the lowest FICI, FICI≤0.5, 0.5<FICI<1 or FICI≥1, would indicate the combination has synergy, part synergy or non-synergy effects, respectively.

MRSA [7] = test: TMT proteomics analysis and PRM validation, auranofin/lysozyme; conditions: auranofin + lysozyme combination vs lysozyme alone, 5 hours
MRSA [8] = test: Mutation frequency and prevention concentration analysis, auranofin/lysozyme; format: cell-based, Staphylococcus aureus
From the text: 5) Mutation frequency and prevention concentration analysis.

MRSA [9] = test: ATP level, auranofin/lysozyme; format: cell-based, Staphylococcus aureus; conditions: 0.5 mg/ml lysozyme and 0.34 μg/ml auranofin
Protocol: 8) ATP level. […] Those without any treatment served as control group. Alter 1 hour incubation at 37° C. all bacteria were collected and washed by cold PBS for 3 times. […] Then, 20 μl of each supernatant were added white 96-well plate pre-reactivated by 100 μl of ATP test solution (Beyotime) to perform luminometer measurement.

MRSA in ARPE-19 cells = test: Cell-based infection model, auranofin/lysozyme; conditions: ≥0.34 μg/ml auranofin combined with 0.5 mg/ml lysozyme
MRSA [10] = test: Resistance development study (serial passages), auranofin/lysozyme; format: cell-based, Staphylococcus aureus; conditions: combination with lysozyme compared with auranofin alone
Protocol: 4) Resistance development study. As described before [Y, Lau et al., (2020) Adv Sci 7:1902227]. MRSA at exponential phase was diluted (1:1000) into fresh LB medium containing different concentrations of auranofin, lysozyme or their combination. After 1 passage (24 hours) at 37° C., MIC of culture was determined by standard two-fold serial dilutions. Next, this culture with higher MIC was further diluted into similar LB medium but with higher concentrations of compounds for next passages. The process was repeated for 18 days. By analyzing initial MICs of auranofin or lysozyme, fold-changes in MI s of these compounds were calculated. Assays were performed in triplicate.

MRSA biofilm = test: Biofilm crystal violet assay, auranofin/lysozyme; format: cell-based, Staphylococcus aureus
Protocol: 3) Biofilm assays According to described previously method [K. R. V. Thappeta et al., (2020) ACS infect Dis 6: 1228-1237], biofilm inhibition was assessed by using an adherence assay on 96-well tissue culture plates. Briefly, bacterial suspensions (1×10^6 (CFU/ml) were exposed to 0.34 μg/ml auranofin in LB medium in the absence and presence of 0.5 mg/ml lysozyme. LB medium with or without bacteria served as […] control group, respectively. After overnight incubation at 37° C. bacterial suspensions were removed, and the wells were gently washed twice with sterile PBS to remove exclusively non-adherent bacteria. The adherent biofilms were fixed by using 95% methanol at 60° C. for 15 minutes. Then, biofilms were stained with 1% crystal violet (100 μl/well) at 37° C. for 15 minutes, followed by gently washing with PBS to remove redundant crystal violet. Finally, the dye was solubilized with 150 μl of 95% ethanol per well at 37° C. for 30 minutes. The optical density of solution in each well was measured at 590 nm using a micro-plate reader. Herein, strong biofilm, weak biofilm and no biofilm wen defined as “ODsample≥2 ODnegative control”, “ODnegative control<ODsample<2 ODnegative control” and “ODsample≤ODnegative control”, respectively. All assays were performed in triplicate.

ARPE-19 cells = test: Toxicity analysis of auranofin by CCK-8 kit; format: cell-based, human; conditions: uninfected cells
From the text: FIG. 10: Toxicity analysis of auranofin on ARPE-19 cells by using CCK-8 kit.

lysozyme: Human lysozyme (C-type) supplied by Sigma-Aldrich; hydrolase used in combination with the drugs
inhibition effect on growth of MRSA at exponential phase (MRSA [1]): few inhibitions effect | minimum inhibitory concentration (MIC) of human lysozyme (MRSA [2]; lysozyme alone): > 150 mg/mL | reduction of the MIC value of lysozyme (MRSA [2]; with tedizolid phosphate at ca. 0.19 μg/ml): 1200 fold | MIC value of lysozyme (MRSA [2]; with tedizolid phosphate at ca. 0.19 μg/ml (0.4 μM, 0.004 MIC)): 0.1235 mg/mL | minimum inhibitory concentration (MIC) of human lysozyme (MRSE [3]): > 150 mg/mL | lysozyme level to which MRSA is sensitive (MIC) ([4]; 0.17 μg/ml auranofin used in combination): 1.0 mg/mL | lysozyme level to which MRSA is sensitive (MIC) ([4]; lysozyme alone): ≥ 150 mg/mL | minimum inhibitory concentration (MIC) of human lysozyme (MRSE [5]): > 150 mg/mL | minimum inhibitory concentration (MIC) of human lysozyme (MRSA [6]; lysozyme alone): > 150 mg/mL and 150 mg/mL | drop of MIC value of lysozyme (MRSA [6]; with cefdinir at ca. 0.75 μg/ml): 1200 folds | MIC value of lysozyme (MRSA [6]; with cefdinir at ca. 0.75 μg/ml (1.89 μM)): 0.125 mg/mL

CCN(CC)c1nc2c(S(=O)(=O)c3ccc(Cl)cc3)nnn2c2cc(OC)c(OC)cc12 [Targocil]
effect of LTA/WTA synthesis inhibitor on cefdinir/lysozyme combination (FICI) (MRSA [6]): abolish the combination effect

CC(=O)OC[C@H]1O[C@@H]([S-])[C@H](OC(C)=O)[C@@H](OC(C)=O)[C@@H]1OC(C)=O.CCP(CC)CC.[Au+] [auranofin, Auranofin]
bacterial load (MRSA [1]; 0.34 μg/ml auranofin + 0.5 mg/ml lysozyme, reduced from the level of 10^10): 10^5 CFU/ml | inhibition effect on growth of MRSA at exponential phase (MRSA [1]): few inhibitions effect | CopZ over-expression (MRSA [7]): 21 fold | N-acetylmuramoyl-L-alanine amidase domain (Q2G222) overexpression (MRSA [7]): ~1.84 fold | protein level of walR (Q7A8E1) (MRSA [7]): ~0.68 fold | gene mutation frequency (MRSA [8]; 0.34 μg/ml auranofin + 2 mg/ml lysozyme): ≤ 1×10^−9 | gene mutation frequency (MRSA [8]; 0.34 μg/ml auranofin without lysozyme): ≥ 9×10^−6 | ATP level (MRSA [9]): significantly reduced | fractional inhibitory concentration index (FICI) ([4]; auranofin in combination with lysozyme): 0.266 | drop of bacterial load in infected ARPE-19 cells (MRSA in ARPE-19 cells): 10^2 fold | bacterial load in infected ARPE-19 cells (MRSA in ARPE-19 cells; MOI 5): 10^5 CFU/ml | development of auranofin resistance (MRSA [10]): did suppress the development of auranofin resistance | biofilm-based absorbance at 590 nm, pre-biofilm stage (MRSA biofilm; 0.34 μg/ml auranofin + 0.5 mg/ml lysozyme): biofilm had been absolutely removed | biofilm-based absorbance at 590 nm, post-biofilm stage (MRSA biofilm; auranofin + lysozyme combination after biofilm had appeared): the decrease was not observed after biofilm had appeared | IC50 of auranofin on ARPE-19 cells (ARPE-19 cells): 2.21±0.34 μg/ml

O=C(COC(=O)Cc1coc2ccc3ccccc3c12)Nc1nnc(-c2ccccc2)o1 [LtaS-IN-1]
effect of LTA/WTA synthesis inhibitor on cefdinir/lysozyme combination (FICI) (MRSA [6]): abolish the combination effect
